Assay [1] concerns Salmonella typhi. Description: Antibacterial activity against Salmonella enterica subsp. enterica serovar Typhi CPC assessed as bacterial growth inhibition incubated overnight by broth microdilution assay. In kind it is functional. For orientation: Broth dilution looks for growth in wells or tubes with falling amounts of substance.
For assay [2], the system named is Salmonella enterica. Description: Antibacterial activity against Salmonella enterica NR13555 assessed as bacterial growth inhibition incubated overnight by broth microdilution assay. In kind it is functional.
Assay [3] concerns Staphylococcus aureus. Description: Antibacterial activity against Staphylococcus aureus ATCC25923 assessed as bacterial growth inhibition incubated overnight by broth microdilution assay. In kind it is functional.
Assay [4] deals with Staphylococcus aureus. Briefly: Antibacterial activity against Staphylococcus aureus ATCC43300 assessed as bacterial growth inhibition incubated overnight by broth microdilution assay. Type of assay: functional.
Assay [5] deals with Klebsiella pneumoniae. Briefly: Antibacterial activity against Klebsiella pneumoniae clinical isolate assessed as bacterial growth inhibition incubated overnight by broth microdilution assay. Type of assay: functional.
Assay [6] relates to Pseudomonas aeruginosa. Briefly: Antibacterial activity against Pseudomonas aeruginosa HM801 assessed as bacterial growth inhibition incubated overnight by broth microdilution assay. Type of assay: functional.
In assay [7] the test system is Klebsiella pneumoniae. Briefly: Antibacterial activity against Klebsiella pneumoniae NR41388 assessed as bacterial growth inhibition incubated overnight by broth microdilution assay. In kind it is functional.
Assay [8] relates to KB 3-1. Description: Cytotoxicity against human KB 3-1 cells assessed as reduction in cell viability. In kind it is functional, cell-based.
Assay [9] can be described thus: Antioxidant activity assessed as inhibition of ABTS radical scavenging activity measured upto 6 mins. Type of assay: functional.

In general, MIC refers to the smallest concentration in the dilution series that meets the test's criterion for growth inhibition. A word on the IC50: it is the midpoint of a concentration-inhibition curve.

Converted amounts (≈) assume the structure as drawn.

Take `COC1OC(=O)c2cc3ccc4c(c3c(-c3ccc(O)c(O)c3)c21)OCO4` (stereo not drawn): the MIC in assay [1] worked out at 31.3 µg/mL (≈ 85.4 µM); in assay [2], 62.5 µg/mL (≈ 171 µM); in [3], 62.5 µg/mL (≈ 171 µM); in assay [4] it was 62.5 µg/mL (≈ 171 µM); in [5], 62.5 µg/mL (≈ 171 µM); in assay [6], 31.3 µg/mL (≈ 85.4 µM). Also, the minimal inhibitory concentration (MIC) in [7] came to 62.5 µg/mL (≈ 171 µM). Also, in assay [8], the IC50 came to 4.1 µM.
In the case of GENTAMICIN, the minimal inhibitory concentration (MIC) amounted to 0.05 µg/mL in assay [1]; 0.07 µg/mL in assay [2]; 0.03 µg/mL in assay [3]; 0.07 µg/mL in [4]; 0.03 µg/mL in [5]; 0.05 µg/mL in [6]. Further, the MIC in [7] is 0.07 µg/mL.
Turning to `COC(=O)c1cc2ccc3c(c2c2c1C(=O)c1cc(O)c(O)cc1-2)OCO3`, the MIC in assay [2] worked out at 250 µg/mL (≈ 686 µM). Also, the IC50 in assay [9] worked out at 84.5 µM; in [8], 9.5 µM.
Turning to `Cc1c(C)c2c(c(C)c1O)CCC(C)(C(=O)O)O2` (stereo not drawn) [TROLOX], the IC50 in assay [9] was determined as 68 µM.
As to `COc1ccc(C[C@H]2NC(=O)/C=C/C[C@@H]([C@H](C)[C@H]3O[C@@H]3c3ccccc3)OC(=O)[C@H](CC(C)C)OC(=O)C(C)(C)CNC2=O)cc1Cl` [CRYPTOPHYCIN 52], the 50% inhibitory concentration (IC50) in [8] is 1.3e-05 µM.
With `COc1cc([C@@H](O)[C@@H]2CO[C@H](c3ccc(O)c(OC)c3)[C@H]2CO)ccc1O` [TANEGOOL], the minimal inhibitory concentration (MIC) came out at 31.3 µg/mL (≈ 83.2 µM) in assay [1]; 250 µg/mL (≈ 664 µM) in [2]; 500 µg/mL (≈ 1330 µM) in [3]; 125 µg/mL (≈ 332 µM) in assay [4]; 62.5 µg/mL (≈ 166 µM) in [5]; 15.6 µg/mL (≈ 41.4 µM) in [6]. In addition, the minimum inhibitory concentration (MIC) in assay [7] worked out at 500 µg/mL (≈ 1330 µM). Further, in assay [9], the IC50 came out at 41.2 µM.
`C=CCOC(=O)c1cc2ccc3c(c2c(-c2ccc4c(c2)OCO4)c1C=O)OCO3`: the MIC in [1] came to 500 µg/mL (≈ 1240 µM); in [4] it was 500 µg/mL (≈ 1240 µM); in assay [5], 500 µg/mL (≈ 1240 µM); in assay [6] it was 125 µg/mL (≈ 309 µM).
Regarding `CCCCOC1OC(=O)c2cc3ccc4c(c3c(-c3ccc5c(c3)OCO5)c21)OCO4` (stereo not drawn), the MIC in assay [1] turned out to be 500 µg/mL (≈ 1190 µM); in assay [3], 500 µg/mL (≈ 1190 µM); in assay [4] it was 125 µg/mL (≈ 297 µM); in [5] it was 500 µg/mL (≈ 1190 µM); in [6], 250 µg/mL (≈ 595 µM); in assay [7], 500 µg/mL (≈ 1190 µM).
